Legend:
Assay type in all cases: physicochemical
[1] = Reductive cleavage reaction of F- and NO2-substituted products, NMR (Test Examples 7 and 8); conditions: same conditions as in Test Example 5
[2] = Cleavage reaction under cancer cell model condition, NMR (Test Examples 6 and 9)
Method: At a concentration of ArS—SrA (H) of the formula (7) (225 μM) assuming a realistic intracellular drug concentration, a GSH concentration of a cancer cell was approximated to 20 mM, and the same measurement was performed.
To prevent a peak of the aromatic region having a low concentration from being overlapped by the peak of CHCl3 contained in CDCl3, the measurement was performed with D2O in the outside the double tube. The overall compound concentration was low and the peak ratio of water was high, and thus, the number of times of integration was increased for measurement to distinguish between the peaks of the compounds and the peak of the baseline.
ArSSrA (F) and ArSSrA (NO2) were subjected to the same test as in Test Example 6 to examine their cleavage reactions in the normal cell model and the cancer cell model. The results of ArSSrA (F) and ArSSrA (NO2) are shown in Table 6 and Table 7, respectively.

[3] = Reductive cleavage reaction with GSH in mixed system, NMR (Test Example 4); conditions: ArSSrA (H)/GSH=4.4 mM/4.5 mM, 50 mM phosphate buffer
Method: As NMR spectrum measurement conditions, GSH of the formula (13) was added to ArSSrA (H) of the formula (7) in a 50 mM phosphate buffer to adjust a solution of ArSSrA (H)/GSH=4.4 mM/4.5 mM, and the measurement by NMR was carried out. A double tube (SHIGEMI Co., Ltd., Model SP-405) was used and a TMS-containing CDCl3 solution (LOCK solvent) was placed in the outside to adjust an NMR tube.
In the NMR measurement, the water elimination (presaturation method) measurement was performed with reference to Casi, G. et al., J. Controlled Release. 2012, 161, 121, 422 to 428, and the like.
(Initial concentration ArSSrA (H)/GSH=4.4 mM/4.5 mM)

[4] = Cleavage reaction under normal cell model condition, NMR (Test Example 5); conditions: ArS—SrA 225 μM, GSH 450 μM (normal cell model)
Method: ArS—SrA (H) of the formula (7) was administered to a cell model of a GSH concentration assuming a realistic intracellular drug concentration to examine the cleavage reaction of the linker compound.
At an ArS—SrA (H) concentration (225 μM), the GSH concentration of a normal cell was approximated to 450 μM, and the same measurement was performed. To prevent a peak of the aromatic region having a low concentration from being overlapped by the peak of CHCl3 contained in CDCl3, the measurement was performed with D2O in outside the double tube. The overall compound concentration was low and the peak ratio of water was high, and thus, the number of times of integration was increased for measurement to distinguish between the peaks of the compounds and the peak of the baseline.

[5] = Reductive cleavage reaction with LiBH4 in THF traced by UV spectrum (Test Example 2); conditions: 45 μM in THF, 11 equivalents LiBH4, absorption at 242 nm
Method: The control of the electron density of the S atom by the substituent was expected from the above NMR results, and thus, a reductive cleavage reaction of the thiophenol-type disulfide linker was actually examined. First, a reaction of a thiophenol derivative model compound (compound of formula (2)) with a reducing agent LiBH4 in an organic solvent THF was carried out as a model reaction (formula (12)) using a UV spectrum which can be easily examined, and a pseudo-first order reaction rate was examined.
As the THF, THF available from Wako Pure Chemical Industries, Ltd., product code 207-17765, super dehydrated, and stabilizer-free was used, and as the cell, a cell of 10 mm×10 mm was used. A reduction reaction of an oxidized form (disulfide) of the compound of the formula (2), which is an unsubstituted model compound, was carried out in the cell. The reaction was carried out using an excess amount (11 equivalents) of LiBH4 relative to the oxidized form of the compound of the formula (2) (45 μM in THF). LiBH4 was adjusted by diluting a commercially available THF 2M solution and used in the reaction.

[6] = ArS—SrA 225 μM, GSH 20 mM (cancer cell model), 100 min.
[7] = ArS—SrA 225 μM, GSH 20 mM (cancer cell model), 100 minutes
[8] = ArS—SrA 225 μM, GSH 20 mM (cancer cell model), 1 day

With `O=C(O)c1c(F)cccc1SSc1cccc(F)c1C(=O)O` [ArSSrA (F)] the ArSH abundance ratio ([1]; 100 min.) was 38%, the “ArS—SG abundance ratio (1st ArS—SG column)” value ([1]; 100 min.) was 20% and the “ArS—SG abundance ratio (2nd ArS—SG column)” value ([1]; 100 min.) was 39%. The “ArS—SrA abundance ratio (remaining disulfide)” value ([1]; 100 min.) was 42%, the GSH abundance ratio ([1]; 100 min.) was 42% and the “GS—SG abundance ratio” value ([1]; 100 min.) was 9%. For the same compound, the ArSH abundance ratio ([1]; 1 day) was 36%, the “ArS—SG abundance ratio (1st ArS—SG column)” value ([1]; 1 day) was 21% and the “ArS—SG abundance ratio (2nd ArS—SG column)” value ([1]; 1 day) was 41%. For the same compound, the GSH abundance ratio ([1]; 1 day) was 8%, the “GS—SG abundance ratio” value ([1]; 1 day) was 26% and the ArSH abundance ratio [2, 6] was 92%. The “ArS—SG abundance ratio (1st ArS—SG column)” value [2, 6] was 0%, the “ArS—SG abundance ratio (2nd ArS—SG column)” value [2, 6] was 0% and the “ArS—SrA abundance ratio (remaining disulfide)” value [2, 6] was 8%. For the same compound, the GSH abundance ratio [2, 6] was 96%, the “GS—SG abundance ratio” value [2, 6] was 3.8% and the “linker disulfide cleaved (dissociated)” value [2, 7] was “about 90%”. For the same compound, the ArSH abundance ratio [2, 8] was 100%, the “ArS—SG abundance ratio (1st ArS—SG column)” value [2, 8] was 0% and the “ArS—SG abundance ratio (2nd ArS—SG column)” value [2, 8] was 0%. For the same compound, the “ArS—SrA abundance ratio (remaining disulfide)” value [2, 8] was 0%, the GSH abundance ratio [2, 8] was 90% and the “GS—SG abundance ratio” value [2, 8] was 9.5%. For the same compound, the “linker disulfide cleaved (dissociated)” value [2, 8] was “all”.
For `O=C(O)c1cc(SSc2ccc([N+](=O)[O-])c(C(=O)O)c2)ccc1[N+](=O)[O-]` [ArSSrA (NO2)], the ArSH abundance ratio ([1]; 100 min.) was 51%, the “ArS—SG abundance ratio (1st ArS—SG column)” value ([1]; 100 min.) was 20% and the “ArS—SG abundance ratio (2nd ArS—SG column)” value ([1]; 100 min.) was 39%. For the same compound, the “ArS—SrA abundance ratio (remaining disulfide)” value ([1]; 100 min.) was 29%, the GSH abundance ratio ([1]; 100 min.) was 30% and the “GS—SG abundance ratio” value ([1]; 100 min.) was 9%. For the same compound, the ArSH abundance ratio ([1]; 1 day) was 48%, the “ArS—SG abundance ratio (1st ArS—SG column)” value ([1]; 1 day) was 22% and the “ArS—SG abundance ratio (2nd ArS—SG column)” value ([1]; 1 day) was 45%. The GSH abundance ratio ([1]; 1 day) was 4%, the “GS—SG abundance ratio” value ([1]; 1 day) was 26% and the “ArS—SrA abundance ratio (remaining disulfide)” value ([2]; 100 min, 225 μM) was 5%. For the same compound, the “ArS—SrA abundance ratio (remaining disulfide)” value ([2]; 24 h, 225 μM) was 0%, the ArSH abundance ratio [2, 6] was 95% and the “ArS—SG abundance ratio (1st ArS—SG column)” value [2, 6] was 0%. The “ArS—SG abundance ratio (2nd ArS—SG column)” value [2, 6] was 0%, the GSH abundance ratio [2, 6] was 95% and the “GS—SG abundance ratio” value [2, 6] was 4%. The “linker disulfide cleaved (dissociated)” value [2, 7] was “about 90%”, the ArSH abundance ratio [2, 8] was 100% and the “ArS—SG abundance ratio (1st ArS—SG column)” value [2, 8] was 0%. For the same compound, the “ArS—SG abundance ratio (2nd ArS—SG column)” value [2, 8] was 0%, the GSH abundance ratio [2, 8] was 90% and the “GS—SG abundance ratio” value [2, 8] was 10%. For the same compound, the “linker disulfide cleaved (dissociated)” value [2, 8] was “all”.
In the case of `O=C(O)c1ccccc1SSc1ccccc1C(=O)O` [ArSSrA (H)], the ArSH abundance ratio ([3]; 25 min.) is reported as 13%, the “ArS—SG abundance ratio (1st ArS—SG column)” value ([3]; 25 min.) is reported as 3.8% and the “ArS—SG abundance ratio (2nd ArS—SG column)” value ([3]; 25 min.) is reported as 7.2%. For the same compound, the “ArS—SrA abundance ratio (remaining disulfide)” value ([3]; 25 min.) was 83%, the GSH abundance ratio ([3]; 25 min.) was 74% and the “GS—SG abundance ratio” value ([3]; 25 min.) was 19%. For the same compound, the ArSH abundance ratio ([3]; 100 min.) was 26%, the “ArS—SG abundance ratio (1st ArS—SG column)” value ([3]; 100 min.) was 11% and the “ArS—SG abundance ratio (2nd ArS—SG column)” value ([3]; 100 min.) was 20%. For the same compound, the “ArS—SrA abundance ratio (remaining disulfide)” value ([3]; 100 min.) was 62%, the GSH abundance ratio ([3]; 100 min.) was 48% and the “GS—SG abundance ratio” value ([3]; 100 min.) was 32%. The ArSH abundance ratio ([3]; 1 day) was 12%, the “ArS—SG abundance ratio (1st ArS—SG column)” value ([3]; 1 day) was 31% and the “ArS—SG abundance ratio (2nd ArS—SG column)” value ([3]; 1 day) was 57%. For the same compound, the “ArS—SrA abundance ratio (remaining disulfide)” value ([3]; 1 day) was 57%, the GSH abundance ratio ([3]; 1 day) was 11% and the “GS—SG abundance ratio” value ([3]; 1 day) was 32%. For the same compound, the ArSH abundance ratio ([4]; 100 min.) was 8.2%, the “ArS—SG abundance ratio (1st ArS—SG column)” value ([4]; 100 min.) was 2% and the “ArS—SG abundance ratio (2nd ArS—SG column)” value ([4]; 100 min.) was 1.8%. For the same compound, the “ArS—SrA abundance ratio (remaining disulfide)” value ([4]; 100 min.) was 89%, the GSH abundance ratio ([4]; 100 min.) was 88% and the “GS—SG abundance ratio” value ([4]; 100 min.) was 10%. For the same compound, the ArSH abundance ratio ([4]; 1 day) was 3.3%, the “ArS—SG abundance ratio (1st ArS—SG column)” value ([4]; 1 day) was 24% and the “ArS—SG abundance ratio (2nd ArS—SG column)” value ([4]; 1 day) was 21%. The “ArS—SrA abundance ratio (remaining disulfide)” value ([4]; 1 day) was 84%, the “GSH abundance ratio (GSH remained)” value ([4]; 1 day) was 18% and the GSH consumed ([4]; 1 day) was 82%. The “GS—SG abundance ratio” value ([4]; 1 day) was 62%, the linker disulfide cleaved ([4]; 1 day) was “about 16%” and the ArSH abundance ratio [2, 6] was 82%. For the same compound, the “ArS—SG abundance ratio (1st ArS—SG column)” value [2, 6] was 0%, the “ArS—SG abundance ratio (2nd ArS—SG column)” value [2, 6] was 0% and the “ArS—SrA abundance ratio (remaining disulfide)” value [2, 6] was 19%. For the same compound, the GSH abundance ratio [2, 6] was 97%, the “GS—SG abundance ratio” value [2, 6] was 3.4% and the “linker disulfide cleaved (dissociated)” value [2, 7] was 82%. The ArSH abundance ratio [2, 8] was 100%, the “ArS—SG abundance ratio (1st ArS—SG column)” value [2, 8] was 0% and the “ArS—SG abundance ratio (2nd ArS—SG column)” value [2, 8] was 0%. The “ArS—SrA abundance ratio (remaining disulfide)” value [2, 8] was 0%, the GSH abundance ratio [2, 8] was 91% and the “GS—SG abundance ratio” value [2, 8] was 8.8%. The “linker disulfide cleaved (dissociated)” value [2, 8] was 100%.
For `c1ccc(SSc2ccccc2)cc1` [formula (2)], the “pseudo first order reaction rate constant k” value [5] was 1.97×10^−2.

Source: patent US20240374750A1, “LINKER COMPOUND AND COMPLEX COMPOUND CONTAINING SAME” (TOHOKU UNIVERSITY, priority 2021, published 2024)
